Consider 2 substances from patent US20230060040A1, “USE OF TRANSFERRIN, TRANSFERRIN RECEPTOR AND ANTIBODY THEREOF IN PREPARATION OF ANTI-SARS-CoV-2 DRUG” (KUNMING INSTITUTE OF ZOOLOGY, CHINESE ACADEMY OF SCIENCES, priority 2020, published 2023).

In assay [1] the target is SARS-CoV-2 spike protein (Severe acute respiratory syndrome coronavirus 2, UniProt P0DTC2). As to conditions: SPR, spike protein 3.90625-250 nM, immobilized transferrin receptor.
Assay [2] concerns SARS-CoV-2. Type of assay: cell-based. The note with it: read-out: EC50 by qRT-PCR.
Assay [3] deals with SARS-CoV-2. Type of assay: cell-based.
Assay [4] deals with SARS-CoV-2. It counts as cell-based. The note with it: Vero E6 cells, different concentrations, 48 h.

pEC50: −log10 of the molar value. Where “and” joins values, the source holds several entries; their conditions need not be identical. Identical values can stand only once. Like-named read-outs stand apart in the source and are kept apart here.

Consider “transferrin receptor: transferrin receptor protein purchased from Sino Biological, catalog number 11020-H07H”, for which the “binding of SARS-CoV-2 spike protein to transferrin receptor” value in assay [1] is listed as “strong binding capacity”. Besides, the pEC50 is 7.03 and 7.30 in assay [2]; 7.10 in assay [3] (read-out: EC50 by CPE analysis). In assay [4], the “inhibition of SARS-CoV-2 infection” value is given as “could inhibit SARS-CoV-2 infection”.
Consider “transferrin: main iron-containing plasma single-chain glycoprotein, purchased from Sigma, catalog number T4382”, for which the pEC50 is 6.80 in assay [2]; 6.90 in assay [3] (read-out: EC50 by CPE analysis); 7.10 and 7.30 in assay [3] (read-out: EC50 calculated by CPE). In addition, in assay [4], the “inhibition of SARS-CoV-2 infection” value was “could inhibit SARS-CoV-2 infection”.

Broadly, the pEC50 is −log10 of the EC50, conventionally taken in molar units.
